Entries after “also recorded” stand apart in the source; their conditions may differ.
Key:
[1] = pH of untreated SAP solution; assay type: physicochemical; details: before neutralization in culture medium
Experimental: (§1) Untreated SAP solution has a very low pH (about 3-4). We neutralized the SAP solution in culture medium before implanting cells in the material. Briefly, for both 1% and 3%, SAP was placed in a dry dish and then 500 μl of culture medium added at the edge of the dish. This was to ensure that the culture medium would not wash the SAP away. The self-assembly occurred as soon as the material made contact with the medium. The medium was changed once at 30 minutes, and then removed. The 400 cells were placed either in the assembled SAP or a control well. Culture medium was then added at the edge of the dish in both SAP cases, and topped up every 2 days to compensate for evaporation. On day 14, the cells were vigorously washed out of the SAP using culture medium. In the 1% case, group 1 (n=4), the cells and SAP were moved to a new well and contents were washed multiple times to separate them from the SAP. In the 3% case, group 2 (n=4), the wells were also vigorously washed to remove the cells from the SAP. However, in both the 1% and 3% SAP concentration, not all of the cells were liberated. The culture continued to grow for 28 days at which point the wells were fixed with 4% paraformaldahyde.

[2] = tested on: prostate cancer cells (DU145); assay: spheroid (prostasphere) / colony formation of prostate cancer stem cells embedded in SAP, non-adherent plate; assay type: cell-based; details: for state of CSCs: 14 days after plating; for prostasphere detection: 14 days after plating in non-adherent plate
Experimental: The SAP solution was prepared by using RADA16-I dry powder (made in the Ellis-Behnke lab) and mixed in an Eppendorf tube. The solution contained 10 or 30 mg of RADA16-I powder in 1 ml of Milli-Q water (Millipore Corp., Billerica Mass.), mixed, then sonicated for 30 seconds and filtered; this produced 1% and 3% SAP, respectively.
Pre-mix medium for spheroid assay. Mix 50 ml SFM (DMEM-F12-high glucose with 0.25% methylcellulose) and add 1 ml b27 per 50 ml SFM (50× stock). The growth factors are: fibroblast growth factor-basic (FGF) (Sigma cat. no. F0291)—25 μg dissolved in 1.0 ml of 5 mM Tris (pH 7.6) and sterilized with a 0.22 μm pore size filter (make 20 μl aliquots (stored at −20° C.) and add 10 μl per 50 ml of SFM); Epidermal growth factor (EGF) (Sigma cat. no. E4127)—0.1 mg dissolved in 1.0 ml of phosphate-buffered saline containing 0.1% bovine serum albumin (Sigma cat. no. A7511) (make […] (stored at −20° C.) and add 10 μl per 50 ml of SFM); Insulin 10 mg/ml—add 20 μl per 50 ml.
To remove prostate cancer cells (DU145, ATCC, Rockville, Md.) from adherent culture, trypsin was used to liberate and then re-suspend 400 cells per 1 μl plated in each well (10). Before plating the cells, the plate was coated with polyhema (Sigma, St. Louis, Mo.).
as §1

[3] = tested on: hormone refractory prostate cancer (HRPC); details: HRPC patients, Docetaxel-based chemotherapy; cited from earlier work

n-RADARADARADARADA-c [SAP]
pH of untreated SAP solution [1]: 3-4
state of CSCs ([2]; 1% SAP): most of the CSCs remained single cells
prostasphere detection ([2]; 1% SAP): no prostaspheres could be detected
time remaining cells continued to be quiescent (no division, no colony formation) ([2]; 1% SAP, cells not liberated by day-14 washout): up to 28 days
state of cells at day 10 (FIG. 1G) ([2]; 1% SAP, day 10): still single cells
cell division and colony formation while cells are in the material ([2]; 1% SAP, group 1 (n=4)): remained quiescent; also recorded: delayed division and formation of colonies
colonies when cells completely surrounded by the material ([2]; 1% and 3% SAP): no colonies were seen
colonies when part of the cell was exposed ([2]; 1% and 3% SAP, some cases): a colony of reduced size was seen
time proliferation of cells was suspended ([2]; 1% and 3% SAP, experiment then stopped): 28 days
state of CSCs ([2]; 3% SAP): most of the CSCs remained single cells
prostasphere detection ([2]; 3% SAP): no prostaspheres could be detected
cell division or colony formation of cells that remained in the material ([2]; 3% SAP, at 28 days): no cell division or colony formation
state of cells at day 10 (FIG. 1H) ([2]; 3% SAP, day 10): still single cells
size of single cell remaining in SAP (FIG. 1O) ([2]; 3% SAP, day 28): still the same size as day 1
time CSCs remained quiescent ([2]; CSCs from prostate cancer cell lines embedded in SAP): more than 28 days
self-renewal of prostate CSC ([2]; SAP, viability and CSC property preserved): completely inhibit
time until colonization visible post-washout ([2]; cells washed out of 1% SAP): 10 days
viability and self-renewal of embedded cells after washout ([2]; cells washed out of 1% SAP and replated): viable and capable of self-renewal
time until prostaspheres visible after washout ([2]; cells washed out of 1% SAP at day 14, replated in non-adherent plate): 8 days
time until prostaspheres evident post-washout ([2]; cells washed out of 3% SAP at day 14): 8 days
division of cancer cells in vitro and subsequent colony formation ([2]; each group, cells placed in the SAP): stopped

CC(=O)O[C@@]12CO[C@@H]1C[C@H](O)[C@@]1(C)C(=O)[C@H](O)C3=C(C)[C@@H](OC(=O)[C@H](O)[C@@H](NC(=O)OC(C)(C)C)c4ccccc4)C[C@@](O)([C@@H](OC(=O)c4ccccc4)[C@H]21)C3(C)C [Docetaxel]
improvement of median survival time [3]: 3 months
